Experimental data as given in patent publication US10533034B2, “Human iNKT cell activation using glycolipids” (ACADEMIA SINICA, priority 2014, dated 2020).

What was measured:
[1] = system: human naïve Vα24+ iNKT cells; assay: Expansion of human iNKT cells; assay type: cell-based; conditions: 100 ng/ml; counted on day 9
Procedure: Human naïve Vα24^+ iNKT cells were cultured with autologous immature CD14^+ DCs pulsed with the indicated glycolipid at 100 ng/ml or DMSO on day 2 for 18 h. On day 3, the suspension cells were transferred to a new dish, cultured in the presence of 50 U/ml IL-2 (R & D Systems), and replenished with fresh medium every 3 days. The percentage of Vα24^+/Vβ11^+ cells was determined by flow cytometry on day 9. The total cell number after expansion was calculated with the Guava ViaCount reagent (Millipore, USA) and detected by the Guava system with CytoSoft™ software containing the ViaCount module (Millipore, USA).
As described above, glycolipid analogs with αGal were stronger immune modulators than those with αGlc in mice, especially for the comparison between 7DW8-5 and 7DW8-5-Glc. To investigate if similar trends also applied to human iNKT cells, Vα24^+ iNKT cells isolated from the peripheral blood were incubated with immature DCs pulsed with the indicated glycolipid at 100 ng/ml on day 2. After antigen removal on day 3, human iNKT cells were cultured in the presence of IL-2. The number of expanded iNKT cells was counted using the Guava ViaCount reagent on day 9.

[2] = system: C1-expanded Vα24+ iNKT cells; assay: mCD1d vs. hCD1d swapping assay, human iNKT cells; assay type: cell-based; conditions: presented by mCD1d or hCD1d; 1, 0.1, 0.01 μg/ml
Procedure: (§1) (4A) Murine DN3A4-1.2 Vα14+ iNKT hybridoma cells or (4B) C1-expanded Vα24^+ iNKT cells were pulsed with the indicated glycolipid presented by either mCD1d (A20-CD1d cells) or hCD1d (HeLa-CD1d cells) at 1, 0.1, and 0.01 μg/ml. After 18 hr, the supernatants were harvested to measure IL-2 secretion by an ELISA assay (4A) or using Beadlyte® Human Cytokine kit and Luminex® 200™ reading system (4B). Assays were performed in triplicates. 8-5 was the abbreviation of 7DW8-5.
C1-expanded Vα24^+ iNKT cells were pulsed with the indicated glycolipid antigen presented by either mCD1d (A20-CD1d cells) or hCD1d (HeLa-CD1d cells) at 1, 0.1, and 0.01 μg/ml. After 18 hr, the supernatants were harvested for the measurement of IFN-γ (12A) and IL-4 (12B) secretions. (12C) The ratio of IFN-γ over IL-4 was calculated at different concentrations of glycolipids. […]
Murine DN3A4-1.2 Vα14 iNKT hybridoma cells or C1-expanded Vα24^+ iNKT cells were pulsed with the indicated glycolipid antigen presented either by mCD1d (A20-CD1d cells) or hCD1d (HeLa-CD1d cells) at 1, 0.1, and 0.01 μg/ml. […] IL-2 released from Vα14^+ iNKT cells was determined by ELISA assay. IFN-γ, IL-4 and IL-2 secreted from Vα24^+ iNKT cells were detected using Beadlyte® Human Cytokine kit (Millipore, N.Y., USA) and Luminex® 200™ reading system. […]

[3] = system: Murine DN3A4-1.2 Vα14 iNKT hybridoma cells; assay: mCD1d vs. hCD1d swapping assay, murine iNKT cells; assay type: cell-based, mouse; conditions: presented by mCD1d or hCD1d; 1, 0.1, 0.01 μg/ml
Procedure: as §1
Murine DN3A4-1.2 Vα14 iNKT hybridoma cells or C1-expanded Vα24^+ iNKT cells were pulsed with the indicated glycolipid antigen presented either by mCD1d (A20-CD1d cells) or hCD1d (HeLa-CD1d cells) at 1, 0.1, and 0.01 μg/ml. After 18 hr, the supernatants were harvested for the measurement of cytokine secretion(s). IL-2 released from Vα14^+ iNKT cells was determined by ELISA assay. IFN-γ, IL-4 and IL-2 secreted from Vα24^+ iNKT cells were detected using Beadlyte® Human Cytokine kit (Millipore, N.Y., USA) and Luminex® 200™ reading system.
To explain the species-specific responses, we examined the effects of swapping human vs. mouse CD1d molecules against human vs. murine iNKT cells on the stimulatory activities of GSLs with different glycosyl groups. […]

[4] = system: B6 WT mice splenocytes; assay: FACS analyses of WT mouse immune cells after glycolipid stimulation; assay type: in vivo; conditions: 1 μg/mouse; 3 days
Procedure: B6 WT mice treated with the indicated glycolipid (1 μg/mouse) or vehicle (1% DMSO in PBS) were sacrificed at 72 hr post-injection and their splenocytes were subjected to FACS analysis. (8A) The total splenocytes, (8B) total CD11Chi cells, (8C) CD11Chi/CD80+ cells, (8D) CD11Chi/CD86+ cells, (8E) CD4^+ T cells and (8F) CD8^+ T cells.
B6 WT or Jα18 KO mice treated with specific glycolipid (1 μg/mouse) or vehicle (1% DMSO in PBS) were sacrificed at 72 hr post-injection and their spleens were harvested. After pressing spleens through 70 um strainer and lysis of erythrocytes, the nucleated cells were resuspended in PBS buffer containing azide (0.05%) and stained with antibodies recognizing the indicated cell surface antigens for 30 min at 4° C. After washing, the splenocytes were subjected to FACS analysis. The antibodies against CD3, CD4, CD8α, CD11c, CD80, and CD86 were obtained from BD Bioscience-Pharmingen.
Next, we analyzed the expansion/activation of immune cells in WT mice 3 days after glycolipid stimulation. The numbers of total T cells, CD4^+ T and CD8^+ T cells were higher in mice treated by GSLs with αGal head than those treated by GSLs with αGlc (FIGS. 2C, 8E and 8F). This was in line with the observation that more cytokines/chemokines were induced by GSLs with αGal than GSLs with αGlc in mice (FIGS. 2A, 2B and 7). […] As compared to 7DW8-5-Glc, C1-Glc not only expanded ˜1.3 fold more splenocytes and DCs (FIGS. 8A and 8B) but also activated ˜3.5 fold more CD80^+ DCs as well as ˜3 fold more CD86^+ DCs (FIGS. 8C and 8D). The increased expansion/activation of DCs may contribute to the stronger immunogenicity triggered by C1-Glc and C34-Glc as compared to 7DW8-5-Glc in vivo.

Row | Compound | expansion of human iNKT cells in vitro compared with 7DW8-5 [1] | cytokine secretion (IL-2, IFN-γ, IL-4) from human iNKT cells [2] | cytokine (IL-2) secretion from murine iNKT cells [3] | expansion of immune cells in WT mice [4]
1 | CC[C@@H](O)[C@@H](O)[C@H](CO[C@H]1OC(CO)[C@@H](O)C(O)C1O)NC(=O)Cc1ccc(F)cc1 (stereo partly shown) [Compound 7DW8-5-Glc] | significantly (p=0.0009) better |  |  | 
2 | CCCCCCCCCCCCCC[C@@H](O)[C@@H](O)[C@H](CO[C@H]1O[C@H](CO)[C@@H](O)[C@H](O)[C@@H]1O)NC(=O)CCCCCCCCCCc1ccc(F)cc1 [Compound 7DW8-5-Man] |  | could not stimulate | could not stimulate | did not expand any types of immune cells
